# Data reported in ChEMBL document CHEMBL4334443, “Characterization of Covalent Pyrazolopyrimidine-MKK7 Complexes and a Report on a Unique DFG-in/Leu-in Conformation of Mitogen-Activated Protein Kinase Kinase 7 (MKK7)” (J Med Chem, 2019).
# Assay: Inhibition of MKK7 beta1 S273D/T275D double mutant (unknown origin) using JNK1 K55M mutant as substrate by ADP-Glo assay
# Design: species or system Homo sapiens
row,IC50 [nM],SMILES
1,666,C=CC(=O)N1CCC[C@@H](n2nc(-c3ccc(C(F)(F)F)cc3)c3c(N)ncnc32)C1
2,159,C=CC(=O)N1CCC[C@@H](n2nc(-c3cccc(C(F)(F)F)c3)c3c(N)ncnc32)C1
3,154,C=CC(=O)N1CCC[C@@H](n2nc(-c3ccc(F)cc3)c3c(N)ncnc32)C1
4,8.6,C=CC(=O)N1CCC[C@@H](n2nc(-c3ccc(O)cc3)c3c(N)ncnc32)C1
5,> 10000,CCC(=O)N1CCC[C@@H](n2nc(-c3ccccc3)c3c(N)ncnc32)C1
6,1570,C=CC(=O)N1CCC[C@@H](n2nc(C#CC3CCCC3)c3c(N)ncnc32)C1
7,> 10000,CCC(=O)N1CCC[C@@H](n2nc(-c3cccc(C(F)(F)F)c3)c3c(N)ncnc32)C1
8,113,C=CC(=O)N1CCC[C@@H](n2nc(-c3ccc4ccccc4c3)c3c(N)ncnc32)C1
9,631,C=CC(=O)N1CCC[C@@H](n2ncc3c(N)ncnc32)C1
10,149,C=CC(=O)N1CCC[C@@H](n2nc(-c3cccc4ccccc34)c3c(N)ncnc32)C1
11,307,C=CC(=O)N1CCC[C@@H](n2nc(C3CC3)c3c(N)ncnc32)C1
12,413,C=CC(=O)N1CCC[C@@H](n2nc(-c3ccccc3)c3c(N)ncnc32)C1
13,2610,CN(C)C/C=C/C(=O)N1CCC[C@@H](n2nc(-c3cccc(C(F)(F)F)c3)c3c(N)ncnc32)C1
14,> 10000,CCC(=O)N1CCC[C@@H](n2nc(-c3ccc(F)cc3)c3c(N)ncnc32)C1
15,19,C=CC(=O)N1CCC[C@@H](n2nc(-c3cnc4[nH]ccc4c3)c3c(N)ncnc32)C1
16,> 10000,N#C/C(=C\C1CC1)C(=O)N1CCC[C@@H](n2nc(-c3cnc4[nH]ccc4c3)c3c(N)ncnc32)C1
17,> 10000,N#C/C(=C\C1CC1)C(=O)N1CCC[C@@H](n2nc(-c3cccc(C(F)(F)F)c3)c3c(N)ncnc32)C1

row,SMILES,IC50 [nM]
1,C=CC(=O)N1CCC[C@@H](n2nc(-c3cn(C)c4ccccc34)c3c(N)ncnc32)C1,302
2,C=CC(=O)N1CCC[C@@H](n2nc(-c3ccc(Oc4ccccc4)cc3)c3c(N)ncnc32)C1 [IBRUTINIB],78
